Legend:
RPE cell cultures [1] = experiment: Autophagy assays: POS trafficking, colocalization of POS with LC3B; format: cell-based
Procedure: FIGS. 2A and 2B depict photoreceptor outer segment trafficking after treatment with Abeta oligomers in the presence or absence of sigma 2 receptor modulators (FIG. 2A=Compound A and Compound C; FIG. 2B=Compound B).
FIGS. 3A and 3B depict photoreceptor outer segment trafficking after treatment with an oxidative stressor in the presence or absence of sigma 2 receptor modulators (FIG. 3A=Compound A and Compound C; FIG. 3B=Compound B).
Autophagy Assays: Autophagy assays were performed in accordance with Klionsky et al., “Guidelines for the Use and Interpretation of Assays for Monitoring Autophagy,” (4th edition) Autophagy 2021; 17:1-382, which is hereby incorporated by reference in its entirety. RPE cultures were treated with human oligomeric Aβ in either the presence or absence of compounds of the invention. POS trafficking was measured over time after the addition of POS to RPE cell cultures. Stressors included addition of Aβ oligomers or H2O2 for 12 to 48 hours. […] This process was disrupted by addition of stressors such as Aβ oligomers (FIGS. 2A and 2B) or oxidative stress (FIGS. 3A and 3B).

RPE cell cultures [2] = experiment: Quantification of an autophagy related protein after oxidative stressor; format: cell-based; conditions: after oxidative stressor (FIG. 4)
Text: FIG. 4 depicts quantification of an autophagy-related protein after oxidative stress by an oxidative stressor in the presence or absence of sigma-2 receptor modulators.
Oxidative stressors are associated with pathology in AMD with changes seen in autophagy associated proteins. Application of an oxidative stressor caused increased expression of an autophagy related protein acutely (FIG. 4).

sigma-2 receptors = target: T1, sigma-2 receptors (Mus musculus, UniProt Q8VD00); experiment: Drug concentration in plasma, brain and retina; format: in vivo
T1 sequence (Q8VD00 1-176): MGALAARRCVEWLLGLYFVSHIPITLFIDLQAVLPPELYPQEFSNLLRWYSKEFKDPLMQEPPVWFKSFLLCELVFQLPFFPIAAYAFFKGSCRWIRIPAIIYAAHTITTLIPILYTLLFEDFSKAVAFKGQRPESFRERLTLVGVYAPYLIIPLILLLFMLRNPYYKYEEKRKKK
Procedure: FIG. 6 depicts quantification of the concentration of the sigma-2 receptor modulator Compound A in mouse plasma, brain, and retina.
FIG. 7 depicts quantification of the concentration of the sigma-2 receptor modulator, Compound B, in mouse plasma, brain and retina.
Following a single oral administration of [14C]-Compound A to a rat, autoradiography was performed to determine tissue distribution. […] Receptor occupancy exceeding 80% confers efficacy in vivo. Drug concentration in the brain (cerebellum), retina, and plasma were also measured. […] Similarly, following a single orally administered dose, Compound B was found in concentrations that exceeded 80% receptor occupancy at sigma-2 receptors in the retina and plasma and approximately 50% occupancy in the brain (FIG. 7).

retinal ganglion cells [3] = experiment: In vivo model of glaucoma: pattern electroretinogram (PERG); conditions: p<0.05 (FIGS. 9A and 9B)
Text: FIGS. 9A and 9B depict quantification of electrical activity in retinal ganglion cells in an in vivo model of glaucoma in the presence or absence of sigma-2 receptor modulator.
(§1) In vivo models of glaucoma (Shah, M., et al., “Translational Preclinical Pharmacologic Disease Models for Opthalmic Drug Development,” Development. Pharm. Res. 36(4): 58 (2019); which is hereby incorporated by reference in its entirety) were used to test the utility of sigma-2 receptor modulators.
Glaucoma can cause perturbations in the electrical activity of the retina. To measure the electrical activity, a pattern electroretinogram (PERG) measure electrical activity of the retina in response to a test stimulus, such as a reversing checkerboard. PERG is a noninvasive, direct, and objective method to assess retinal ganglion cell function. An in vivo model of glaucoma causes a functional deficit in retinal ganglion cells (injured vs. naïve), resembling what is seen in patients with glaucoma and other retinal diseases.

retinal ganglion cells [4] = experiment: In vivo model of glaucoma: retinal ganglion cell counts; conditions: p<0.05 (FIG. 8)
Text: FIG. 8 depicts quantification of retinal ganglion cell density in an in vivo model of glaucoma in the presence or absence of sigma-2 receptor modulator.
as §1
To test whether sigma-2 receptor modulators can rescue cell death, in vivo models were used to cause cell death of retinal ganglion cells, resembling what is seen in patients with glaucoma and other retinal diseases.

[5] = oxidative stress, H2O2 (FIGS. 3A and 3B)
[6] = stressor Aβ oligomers (FIGS. 2A and 2B)

| SMILES | POS trafficking into autophagosomes (colocalization of POS with LC3B) (RPE cell cultures [1]; [5]) | POS trafficking into autophagosomes (colocalization of POS with LC3B) (RPE cell cultures [1]; [6]) | expression of an autophagy related protein (RPE cell cultures [2]) | concentration in the retina relative to brain (cerebellum) and plasma (sigma-2 receptors; mouse (FIG. 6)) | retinal ganglion cell function (PERG electrical activity) (retinal ganglion cells [3]) | occupancy at sigma-2 receptors in the brain (sigma-2 receptors; mouse (FIG. 7), single orally administered dose) | retinal ganglion cell counts (retinal ganglion cells [4]) |
| --- | --- | --- | --- | --- | --- | --- | --- |
| CC(C)=C[C@@H](CC(C)(C)c1ccc(C(F)(F)F)cc1)N1CCC(C2CCOCC2)CC1 [Compound C] | restored normal trafficking into autophagosomes after stress | restored normal trafficking into autophagosomes after stress | prevented the increase in this autophagy related protein | – | – | – | – |
| CC(C)(C)Oc1cc(CCC(C)(C)N2Cc3ccc(S(C)(=O)=O)cc3C2)ccc1O [Compound A] | restored normal trafficking into autophagosomes after stress | restored normal trafficking into autophagosomes after stress | prevented the increase in this autophagy related protein | higher than the concentration in the brain or plasma | preserves retinal ganglion cell function | – | – |
| CC1(O)CCN(CCC(C)(C)c2ccc(C(F)(F)F)cc2)CC1 [Compound B] | – | – | – | – | – | approximately 50% | significantly preserved retinal ganglion cells counts |

— patent US20240009168A1 (Cognition Therapeutics, Inc., priority 2020, published 2024)
